Laboratory results from patent US11874276B2, “STING levels as a biomarker for cancer immunotherapy” (Dana-Farber Cancer Institute, Inc., priority 2018, dated 2024).
Entries after “also recorded” stand apart in the source; their conditions may differ.

Legend:
Format in all cases: cell-based, human
A549 cells = assay: Immunoblot of STING in KL cell lines with LKB1 reconstitution with or without DNMT inhibitor; details: A549 cells (KL DNMT high) with LKB1 reconstitution
Description: FIGS. 16A to 16C. FIG. 16A: Immunoblot of the indicated proteins in KL cell lines transduced with the indicated vector. FIG. 16B: Correlation between STING and DNMT1 expression in KL cell lines. FIG. 16C: Immunoblot of the indicated proteins in KL cell lines transduced with the indicated vector with or without 100 nM 5-aza-2′-deoxycytidine (DAC) treatment for 7 days.

TNBC cell lines = assay: CXCL10 secretion by TNBC cell lines treated with STING agonist; details: all TNBC cell lines, relative to a control
Description: TNBC cell lines were also assayed for their responsiveness to the STING agonist AduroS100. Cells were treated with AduroS100 or a control and CXCL10 levels secreted into the supernatant were measured.

H69 cells [1] = assay: Immunoblot of STING in H69 cells after GSK126 treatment
Source text: Immunoblot of STING, histone H3K27me3 and β-actin levels in H69 cells after GSK126 (EZH2 inhibitor) treatment at the indicated concentrations and for the indicated number of days.
(§1) Protein was isolated from cell lines and measured by BCA (Pierce Biotechnology). Protein extracts were subjected to polyacrylamide gel electrophoresis using the 4%-12% NuPAGE gel system (Invitrogen, Carlsbad, CA), transferred to PVDF (Millipore) membranes, and immunoblotted using antibodies that specifically recognize TBK1 (#3013), S172 pTBK1 (#5483), pERK1/2 (#4370), ERK1/2 (#9107), S473 pAKT (#4060), AKT (#9272), S396 pIRF3 (#4947), IRF3 (#4302), Y701 pSTAT1 (#9171), STAT1 (#9172), AXL (#8661), EZH2 (#5246), STING (#13647), MAVS (#3993), E-Cadherin (#3195), Vimentin (#5741), β-Actin (#4970), Tubulin (#2144) (Cell Signaling Technologies, Danvers, MA) and IKKε (#14907) (Sigma-Aldrich, St. Louis, MO).

H69 cells [2] = assay: EZH2 inhibition of H69 cells followed by IFNγ exposure; SPARCS qRT-PCR and cytokine profiling; details: for reactivation / de-repression of SPARCS ERVs: 5 μM for 6 days, then IFNγ 24 h
Description: For EZH2 inhibition experiments, H69 cells were treated with 5 μM GSK126 for 6 days. Drug was replenished every 3 days with both suspension and adherent cells carried each time. After the GSK126 treatment period, equal numbers of DMSO-treated and GSK126-treated cells were exposed to either H2O or 200 ng/mL IFN-γ for 24 hours before harvesting of RNA or conditioned media (CM).
(§2) Multiplex assays were performed utilizing the bead-based immunoassay approach Bio-Plex Pro™ Human Cytokine 40-plex Assay (Cat #171AK99MR2) on a Bio-plex 200 system (Cat #171000201) (Bio-Rad Laboratories, Hercules, CA) and the Human Cytokine/Chemokine Maganetic Bead Panel (Cat #HCYTMAG-60K-PX30) on a Luminex MAGPIX system (Merck Millipore, Billerica, MA). Conditioned media concentration levels [pg/ml] of each protein were derived from 5-parameter curve fitting models. Fold changes relative to the corresponding control were calculated and plotted as log 2FC. Lower and upper limits of quantitation (LLOQ/ULOQ) were imputed from standard curves for cytokines above or below detection.
(§3) Total cellular RNA was extracted using the miRNeasy Mini Kit (Qiagen, Hilden, Germany) according to manufacturer's instructions. After extraction, 1 μg total RNA was used to generate cDNA with the SuperScript III First-Strand Synthesis SuperMix for qRT-PCR kit (Thermo Fisher Scientific, Waltham, MA). Quantitative reverse transcription PCR (qRT-PCR) of the indicated genes was performed using SYBR green PCR Master Mix (Applied Biosystems, Foster City, CA) and the Applied Biosystems 7300 Fast real-time PCR system and software. The relative expression was normalized with the expression of the housekeeping gene 36B4.

[3] = system: H69AR cells, SPARCS high cell lines; assay: IFN pulse-chase of SCLC and other cancer cell lines; qRT-PCR, immunoblot
Description: To test drug effects on gene expression or protein secretion, IFN-γ pulsed H69AR cells were treated with DMSO, 1 μM MRT67307 or 100 nM Ruxolitinib for 24, 48 and 72 hours.
as §1, §3

NSCLC PDOTS = assay: Ex vivo culture of patient-derived organotypic tumor spheroids (PDOTS); cytokine profiling and viability; details: in contrast to NSCLC-2; for production of multiple cytokines/chemokines, especially CXCL10: NSCLC-1 PDOTS (SPARCS high features); for sensitization to ex vivo PD-1 blockade with nivolumab: NSCLC-1 PDOTS, viability Day 6
Source text: PDOTS from human NSCLC resection specimens were generating according to the recent publication^21. Briefly, fresh tumor specimens were minced and resuspended in media with collagenase type IV (Life Technologies, Carlsbad, CA). After digestion, samples were strained over 100 μm filter and 40 μm filters to generate S1 (>100 μm), S2 (40-100 μm), and S3 (<40 μm) spheroid fractions. S2 spheroid fraction was pelleted and resuspended in type I rat tail collagen (Corning, Corning, NY) at a concentration of 2.5 mg/mL. The spheroid-collagen mixture was then injected into the center gel region of the 3D microfluidic culture device. Collagen hydrogels containing PDOTS were hydrated with media and treated with anti-PD-1 (Nivolumab, 100 μg/mL), IFNγ (200 ng/mL), Poly (I:C) (0.5 μg/mL) or combination (Nivolumab+IFNγ Nivolumab+Poly (I:C)). The number of Live/Dead cells in each treatment condition was determined by Trypan Blue Exclusion method and plotted as percentage of viability.
as §2

H69AR cells [4] = assay: Poly(I:C) transfection of H69AR cells; qRT-PCR; details: 72 h following transfection
Description: as §3
For Poly(I:C) dsRNA treatment experiments, H69ARsgCTRL and H69ARsgMAVS cells were plated in RPMI media, transfected with 0.5 μg/mL Poly(I:C) HMW (InvivoGen, Sand Diego, CA) using XtremeGene HP transfection reagent (Sigma-Aldrich, St. Louis, MO) and cultured for 72 hours. On day 3 after transfection, conditioned media was recovered and CXCL10 protein expression was quantified using Human CXCL10/IP-10 Quantikine ELISA kit (R&D Systems, Minneapolis, MN). RNA was extracted and expression levels of relevant genes were analyzed by qRT-PCR.

H69AR cells [5] = assay: IFNγ pulsed H69AR cells chased in media with drug; pSTAT1 immunoblot, CXCL10/ERV qRT-PCR, CXCL10 ELISA; details: 10 min IFNγ pulse, 24 h chase, 1 μM
Description: For IFN pulse experiments, cells were pulsed 10 minutes with IFN-γ 200 ng/mL or 10 ng/mL), IFN-α 10 000 U/mL), or IFN-β 10 000 U/mL), extensively washed, and chased in fresh media for an additional 24, 48 or 72 hours. To test drug effects on gene expression or protein secretion, IFN-γ pulsed H69AR cells were treated with DMSO, 1 μM MRT67307 or 100 nM Ruxolitinib for 24, 48 and 72 hours. Proteome Profiler™ Human Cytokine Array Kit (#ARY005B) and CXCL10 ELISA (#DIP100) (R&D Systems, Minneapolis, MN), were performed according to manufacturer's instructions. For cytokine array, conditioned media (CM) from SCLC cells at basal conditions was collected after 48 and 72 hours. For CXCL10 ELISA, CM from IFN-γ pulsed cells was collected after 72 hours. Total cellular RNA was extracted using the miRNeasy Mini Kit (Qiagen, Hilden, Germany) according to manufacturer's instructions. After extraction, 1 μg total RNA was used to generate cDNA with the SuperScript III First-Strand Synthesis SuperMix for qRT-PCR kit (Thermo Fisher Scientific, Waltham, MA). Quantitative reverse transcription PCR (qRT-PCR) of the indicated genes was performed using SYBR green PCR Master Mix (Applied Biosystems, Foster City, CA) and the Applied Biosystems 7300 Fast real-time PCR system and software. The relative expression was normalized with the expression of the housekeeping gene 36B4.

Nc1ncn([C@H]2C[C@H](O)[C@@H](CO)O2)c(=O)n1 [DNMT inhibitor, 5-aza-2′-deoxycytidine]
STING expression (A549 cells): able to restore STING expression

Nc1ncnc2c1ncn2[C@@H]1O[C@@H]2COP(O)(=S)O[C@@H]3C(O)[C@@H](COP(O)(=S)O[C@H]2[C@H]1O)O[C@H]3n1cnc2c(N)ncnc21 (some centres unmarked) [AduroS100]
CXCL10 levels secreted into the supernatant (TNBC cell lines): elevated levels; also recorded: increased CXCL10 production

CC[C@H](C)n1cc(C)c2c(C(=O)NCc3c(C)cc(C)[nH]c3=O)cc(-c3ccc(N4CCNCC4)nc3)cc21 [GSK126]
STING protein expression (H69 cells [1]): induces STING protein expression
reactivation / de-repression of SPARCS ERVs (H69 cells [2]): induced their reactivation
reactivation / de-repression of SPARCS ERVs (H69 cells [2]; listed as EZH2 inhibitor): de-repressed the same SPARCS as in H69AR cells
IFNγ induced cytokine secretion (H69 cells [2]; treatment over 6 days): enhanced

IFNα
SPARCS upregulation (MLT1C49, MLT1A) ([3]; H69AR cells, 10 min pulse with chase): SPARCS upregulation

Poly(I:C)
production of multiple cytokines/chemokines, especially CXCL10 (NSCLC PDOTS): markedly enhanced; also recorded: markedly enhances CXCL10 production
sensitization to ex vivo PD-1 blockade with nivolumab (NSCLC PDOTS): sensitized; also recorded: sensitizes them to PD-1 blockade
SPARCS upregulation (H69AR cells [4]): SPARCS upregulation
induction of type I/II IFNs (H69AR cells [4]): Induction of type I/II IFNs was also confirmed

O=C(NCCCNc1nc(Nc2cccc(CN3CCOCC3)c2)ncc1C1CC1)C1CCC1 [MRT67307]
effect on downstream CXCL10 expression (H69AR cells [5]): partially inhibited

B1: IFNγ: Recombinant human IFN-γ protein from R&D Systems (protein, UniProt P01579 24-161, looked up)
Interferon gamma: QDPYVKEAENLKKYFNAGHSDVADNGTLFLGILKNWKEESDRKIMQSQIVSFYFKLFKNFKDDQSIQKSVETIKEDMNVKFFNSNKKKRDDFEKLTNYSVTDLNVQRKAIHELIQVMAELSPAAKTGKRKRSQMLFRG
production of multiple cytokines/chemokines, especially CXCL10 (NSCLC PDOTS): markedly enhanced
sensitization to ex vivo PD-1 blockade with nivolumab (NSCLC PDOTS): sensitized
pTBK1, pIRF3 and pSTAT1 activation ([3]; H69AR but not H69 cells, pulse treatment): hyperactivated and sustained
induction of TRIM22 and MLT1C49 ([3]; H69AR cells, 10 minute pulse): marked induction
MLT1C49, CXCL10 and PD-L1 expression ([3]; SPARCS high cells relative to SPARCS low cells, pulse treatment): significantly induced
